The values that follow come from patent US20200332133A1, “SOLVENT AND METHOD OF FORMING ORGANIC FILM USING SOLVENT” (FLOSFIA INC., priority 2017, published 2020).

In brackets after ≈: the same amount, converted by molar mass.

This series can be described thus: Solubility of the organic compound in nonpolar / polar solvent (added to 1.0 mL solvent to saturation point). It counts as physicochemical. The text has this: The raw material(s) is not particularly limited as long as the raw material(s) contains the organic compound, and the raw materials may contain the organic compound and an additive. The additive is not particularly limited as long as an object of a present inventive subject matter is not interfered with, and may be a known additive. The mixing ratio of the additive in the raw materials is not particularly limited, however, preferably in a range of 0.00001 mol % to 30 mol %, and further preferably in a range of 0.0001 mol % to 10 mol %. […] According to a present inventive subject matter, the organic compound is added into the polar solvent that is 1.0 mL to saturation point, and the remaining organic compound in the polar solvent was measured by deducting the remaining amount of organic compound in the polar solvent from the total amount of added organic compound in the polar solvent. […] According to a present inventive subject matter, the organic compound is added into the nonpolar solvent that is 1.0 mL to saturation point, and the remaining organic compound in the nonpolar solvent was measured by deducting the remaining amount of organic compound in the nonpolar solvent from the total amount of added organic compound in the nonpolar solvent. […]

As to `c12c3c4c5c1c1c6c7c2c2c8c3c3c9c4c4c%10c5c5c1c1c6c6c%11c7c2c2c7c8c3c3c8c9c4c4c9c%10c5c5c1c1c6c6c%11c2c2c7c3c3c8c4c4c9c5c1c1c6c2c3c41` [C60 fullerene], the “dissolution into the solvent” value (Comparative Example 4, only 2-Pyrrolidone used as the solvent of the raw-material solution) is “hardly dissolved”. The same compound returned a solubility to mesitylene (nonpolar solvent mesitylene, temperature of 25° C.) of 1500 µg/mL (≈ 2080 µM).
